Experimental data from US10995091B2 (Proximagen, LLC, priority 2010, dated 2021).

Biological target: T1, Human CXCR4 transfected HEK293 cells (Homo sapiens, UniProt P61073)
T1 construct: expressed in transfected cells; host or cells: HEK293
Assay: CXCR4 functional calcium assay (calcium flux FLIPR, antagonism of SDF1 response)
Assay type: cell-based
Conditions: CXCR4 functional activity, antagonism of SDF1 (EC50 concentration), read-out: CXCR4 fKi
Summary of the method: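 HEK293 cells stably transfected with human CXCR4 were loaded with 2 μM Fluo-4 AM in HBSS containing 2.5 mM probenecid, 0.1% BSA and 10 mM HEPES at pH 7.4 and 37° C. Compound was added first, then SDF1 at its EC50 concentration, and intracellular calcium fluorescence was followed on a FLIPR. Antagonist dose-response curves were fitted.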

T1 sequence (P61073 whole entry): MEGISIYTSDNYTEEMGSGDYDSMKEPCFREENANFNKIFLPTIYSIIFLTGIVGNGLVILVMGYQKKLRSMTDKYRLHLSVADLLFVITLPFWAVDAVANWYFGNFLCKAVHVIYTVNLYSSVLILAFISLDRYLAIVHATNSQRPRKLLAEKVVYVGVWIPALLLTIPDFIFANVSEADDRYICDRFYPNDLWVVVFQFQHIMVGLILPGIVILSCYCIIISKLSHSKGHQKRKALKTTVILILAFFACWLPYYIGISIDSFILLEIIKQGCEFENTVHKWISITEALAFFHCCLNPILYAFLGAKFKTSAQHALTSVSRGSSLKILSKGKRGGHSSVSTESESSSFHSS

Ki	Compound
100 to 500 nM	O=C(NCC1CC1)c1cccc(N2CCCN(C3CCN(Cc4ccc(F)cc4)CC3)CC2)n1 [Example 130, N-(Cyclopropylmethyl)-6-(4-{1-[(4-fluorophenyl)methyl]piperidin-4-yl}-1,4-diazepan-1-yl)pyridine-2-carboxamide]
500 to 1000 nM	CCCCNC(=O)c1cccc(N2CCCN(C3CCN(Cc4ccccc4Cl)CC3)CC2)n1 [Example 138, N-Butyl-6-(4-{1-[(2-chlorophenyl)methyl]piperidin-4-yl}-1,4-diazepan-1-yl)pyridine-2-carboxamide]
< 20 nM	CC(C)N1CCC(N2CCCN(c3cccc(C(=O)NCC4CC4)n3)CC2)CC1 [Example 63, N-(Cyclopropylmethyl)-6-{4-[1-(propan-2-yl)piperidin-4-yl]-1,4-diazepan-1-yl}pyridine-2-carboxamide]
100 to 500 nM	Cc1ccccc1CN1CCC(N2CCCN(c3cccc(C(=O)NCC4CC4)n3)CC2)CC1 [Example 131, N-(Cyclopropylmethyl)-6-(4-{1-[(2-methylphenyl)methyl]piperidin-4-yl}-1,4-diazepan-1-yl)pyridine-2-carboxamide]
100 to 500 nM	CC(C)N1CCC(N2CCCN(c3cccc(-c4noc(CC(C)(C)C)n4)n3)CC2)CC1 [Example 160, 1-{6-[5-(2,2-Dimethylpropyl)-1,2,4-oxadiazol-3-yl]pyridine-2-yl}-4-[1-(propan-2-yl)piperidin-4-yl]-1,4-diazepane]
20 to 100 nM	CCCc1nc(-c2cccc(N3CCCN(C4CCN(C(C)C)CC4)CC3)n2)no1 [Example 156, 1-[1-(Propan-2-yl)piperidin-4-yl]-4-[6-(5-propyl-1,2,4-oxadiazol-3-yl)pyridine-2-yl]-1,4-diazepane]
< 20 nM	Cc1nc(-c2cccc(N3CC[C@@H](NC[C@@H]4CCN(C5CCCC5)C4)C3)n2)[nH]c1C1CC1 [Example 224, (3R)—N-{[(3S)-1-Cyclopentylpyrrolidin-3-yl]methyl}-1-[6-(4-cyclopropyl-5-methyl-1H-imidazol-2-yl)pyridin-2-yl]pyrrolidin-3-amine]
20 to 100 nM	C[C@H](N1CCC(N2CCCN(c3cccc(C(=O)NCc4cccnc4)n3)CC2)CC1)C(F)(F)F [Example 89, N-(Pyridin-3-ylmethyl)-6-(4-{1-[(2S)-1,1,1-trifluoropropan-2-yl]piperidin-4-yl}-1,4-diazepan-1-yl)pyridine-2-carboxamide]
100 to 500 nM	CC(C)N1CCC(N2CCCN(c3cccc(C(=O)NCC(F)F)n3)CC2)CC1 [Example 9, N-(2,2-Difluoroethyl)-6-{4-[1-(propan-2-yl)piperidin-4-yl]-1,4-diazepan-1-yl}pyridine-2-carboxamide]
< 20 nM	[2H]C1([2H])CCN(C2CCN(Cc3ccc(F)cc3Cl)CC2)CCN1c1cccc(C(=O)Nc2ccncc2)n1 [Example 205, 6-(4-{1-[(2-Chloro-4-fluorophenyl)methyl]piperidin-4-yl}-7,7-dihydrogenio-1,4-diazepan-1-yl)-N-(pyridin-4-yl)pyridine-2-carboxamide]
500 to 1000 nM	CC(C)N1CCC(CN[C@@H]2CCN(c3cccc(-c4ncc(C5CC5)[nH]4)n3)C2)CC1 [Example 223, (3R)-1-[6-(4-Cyclopropyl-1H-imidazol-2-yl)pyridin-2-yl]-N-{[1-(propan-2-yl)piperidin-4-yl]methyl}pyrrolidin-3-amine]
20 to 100 nM	[2H]C1([2H])CCN(c2cccc(C(=O)NCC3CC3)n2)CCN1C1CCN(C(C)C)CC1 [Example 192, N-(Cyclopropylmethyl)-6-{5,5-dihydrogenio-4-[1-(propan-2-yl)piperidin-4-yl]-1,4-diazepan-1-yl}pyridine-2-carboxamide]
100 to 500 nM	c1cc(NCCNCCCNC2CCCC2)nc(-c2ncc(C3CC3)[nH]2)c1 [Example 237, N-(2-{[3-(Cyclopentylamino)propyl]amino}ethyl)-6-(5-cyclopropyl-1H-imidazol-2-yl)pyridin-2-amine]
